{
  "source": "patent US10159670B2",
  "about": "“Methods of diagnosing and treating motor neuron diseases and other cellular stress-related diseases” (priority 2012, dated 2018)",
  "format_in_all_cases": "cell-based",
  "key": {"[1]": {"system": "mouse embryonic motor neurons", "assay": "Stress-induced change of miRNA biogenesis in primary mouse motor neurons", "conditions": "5 nM, 72 hrs", "method": "(FIG. 7A) miRNA expression level analysis in the motor neuron cell line NSC-34, treated with 6.25 nM Thapsigargin for 24 hrs, relative to cells treated with carrier alone (DMSO). Shown are average and s.d. of qPCR analyses of 3 independent experiments. Pre-miRNAs (light grey, normalized to Gapdh) and miRNAs (dark grey, normalized to Snord68). (FIG. 7B) mRNA levels encoding for proteins involved in the canonical stress response, normalized to the expression of beta-actin. (FIG. 7C) miRNA expression level analysis in mouse embryonic motor neurons, treated with 5 nM Thapsigargin for 72 hrs, relative to cells treated with carrier alone (DMSO). Shown are average and s.d. of qPCR analyses of three independent experiments. Pre-miRNAs (light grey, normalized to Gapdh and beta actin) and miRNAs (dark grey, normalized to Snord70). (FIG. 7D) mRNA markers of the canonical stress response, normalized to the expression of beta-actin. miRNA expression level analysis in NSC-34 cells, treated with Paraquat (PQ) (1 mM, 12 hrs, FIG. 7E) and sodium arsenite (0.5 mM, 60 min, FIG. 7F). pre-miRNA normalized to beta-actin mRNA (FIGS. 7E-F) and miRNAs to 5S (FIG. 7E) or to U6 and 5S (FIG. 7F). (FIGS. 7G-I) miRNA expression level analysis in mouse embryonic Wild-type fibroblasts (light grey) or phospho-mutant eIF2a S51A cells (black) treated with Thapsigargin (5 nM, 72 hrs) relative to carrier alone. […]"}, "[2]": {"system": "mouse embryonic fibroblasts (MEFs)", "assay": "pre-miRNA and miRNA levels in mouse embryonic fibroblasts under stress", "method": "(§1) (FIG. 7A) miRNA expression level analysis in the motor neuron cell line NSC-34, treated with 6.25 nM Thapsigargin for 24 hrs, relative to cells treated with carrier alone (DMSO). Shown are average and s.d. of qPCR analyses of 3 independent experiments. Pre-miRNAs (light grey, normalized to Gapdh) and miRNAs (dark grey, normalized to Snord68). (FIG. 7B) mRNA levels encoding for proteins involved in the canonical stress response, normalized to the expression of beta-actin. (FIG. 7C) miRNA expression level analysis in mouse embryonic motor neurons, treated with 5 nM Thapsigargin for 72 hrs, relative to cells treated with carrier alone (DMSO). Shown are average and s.d. of qPCR analyses of three independent experiments. Pre-miRNAs (light grey, normalized to Gapdh and beta actin) and miRNAs (dark grey, normalized to Snord70). (FIG. 7D) mRNA markers of the canonical stress response, normalized to the expression of beta-actin. miRNA expression level analysis in NSC-34 cells, treated with Paraquat (PQ) (1 mM, 12 hrs, FIG. 7E) and sodium arsenite (0.5 mM, 60 min, FIG. 7F). pre-miRNA normalized to beta-actin mRNA (FIGS. 7E-F) and miRNAs to 5S (FIG. 7E) or to U6 and 5S (FIG. 7F). (FIGS. 7G-I) miRNA expression level analysis in mouse embryonic Wild-type fibroblasts (light grey) or phospho-mutant eIF2a S51A cells (black) treated with Thapsigargin (5 nM, 72 hrs) relative to carrier alone. Pre-miRNA (FIG. 7G) and mature miRNA (FIG. 7H) levels normalized to Gapdh and Snord68, respectively. (FIG. 7I) ATF4, which is induced by phosphorylation of eIF2a, was not induced in phospho-mutant eIF2a S51A cells. Significance of p-values from ANOVA tests is indicated by *p<0.05; **p<0.01. (FIGS. 7J-K) Western-Blot analysis of lysates from untreated NSC-34 cells (control) or cells treated with sodium arsenite (0.5 mM, 60 min). Phospho-specific immunodetection of eIF2a S51 phosphorylation (peIF2a) and total eIF2a levels (FIG. 7J), Dicer and Ago2 levels (FIG. 7K). (FIG. 7L) miRNA expression level analysis in mouse embryonic fibroblasts treated with Puromycin (1 μg/ml, 24 hrs), relative to cells treated with carrier alone (water). Pre-miRNAs (light grey, normalized to Gapdh) and miRNAs (dark grey, normalized to Snord68).\n(FIG. 9A) The ratio of pre-miRNA to mature miRNA levels in NSC-34 cells, transfected with plasmids as indicated and in cells treated for 72 hrs with carrier alone (water, black) or with cycloheximide (CHX, 0.02 μg/ml, gray). Data normalized to control plasmid transfection. Pre-miRNAs further normalized to Gapdh (for FUS R495X, TDP-43 A315T) or to beta-actin (SOD1 G93A) and miRNA levels normalized to Snord68. Average of three independent experiments except for pre-miRNAs in the study of FUS R495X (n=2). Targeted quantitative mass spectrometry analysis of changes in the binding of Ago2 or Dicer to a set of proteins interactors under stress (FIGS. 9B-E). Immunoprecipitated Ago2-Flag (FIG. 9B) or Dicer-Flag (FIG. 9C) from HEK 293 cells, cultured under basal conditions or treated with sodium arsenite (0.5 mM, 60 min) was subjected to targeted mass-spectrometry analysis. Data is averaged from two or three different peptide standards per protein and normalized to the levels of co-immunoprecipiated peptides from untreated cells. Statistically significant result in a student t-test, between arsenite and control treatment is denoted (*p<0.05). Targeted mass spectrometry of (FIG. 9D) Dicer cofactors or (FIG. 9E) SG components, immunoprecipitated with AGO-Flag in FUS R495X-expressing HEK 293 that were further treated for 72 hrs with carrier alone or Cycloheximide (0.02 μg/ml). (FIG. 9F) The ratio of pre-miRNA to mature miRNA levels in mouse embryonic fibroblasts, pretreated for 5 hrs with HSP90 inhibitors (17-AAG, 1 μM or Geldanamycin, 1 μM) and then incubated for 36 more hours with Thapsigargin (5 nM) in combinations with the respective HSP90 inhibitor. […]"}, "NSC-34 cells": {"system": "NSC-34 cells", "assay": "Stress-induced change of pre-miRNA processing in NSC-34 cells (qPCR)", "method": "as §1\nRNA was extracted using Tri reagent (Molecular Research Center Inc.) or Qiazol with consecutive use of the miRNeasy Mini Kit (Qiagen). Pre-miRNA and miRNA reverse transcription was performed using miScript Kits No. I & II (Qiagen). Quantitative analysis of miRNA and pre-miRNA expression performed in more than 3 independent biological repeats and additionally in technical duplicates with StepOnePlus quantitative Real-Time PCR System and 2-sided ANOVA-test performed with DataAssist Software (Life technologies Inc.). Next-generation sequencing of mouse precursor miRNAs and mature miRNAs was performed on two independent experimental repeats, as described in Newman et al. [Newman et al. (2011) RNA 17(10): 1795-1803]. miRNAs were normalized to spiked-in controls and pre-miRNAs were normalized to Snord72 and Snord95.\nStress and cytoplasmic stress granules (SGs) emerge as major pathogenic mechanisms of ALS [Kim et al. (2014) Nat Genet 46(2): 152-160]. Stress pathways are thought to control miRNA activity [Etude and Hornstein, EMBO J. (2014) July 1; 33(13):1428-37], but the idea that cellular stress might broadly regulate miRNA biogenesis was not yet tested. This hypothesis was tested herein by measurement of the relative expression levels of mature miRNAs and their precursors, pre-miRNAs, which provides a proxy for the efficacy of Dicer complex activity. […] Two other chemicals were tested that drive oxidative stress, namely Paraquat (PQ, 12 hrs, 1 mM) and sodium arsenite (1 hr, 0.5 mM). […] Therefore, several different cellular stress pathways negatively regulate miRNA biogenesis."}},
  "data": [
    {"smiles": "C/C=C(/C)C(=O)O[C@H]1C(C)=C2[C@H]([C@@H]1OC(=O)CCCCCCC)[C@@](C)(OC(C)=O)C[C@H](OC(=O)CCC)[C@@]1(O)[C@H]2OC(=O)[C@@]1(C)O", "note": "[Thapsigargin]", "values": [
      {"measurement": "markers of ER-stress", "setting": "[1]", "result": "up-regulated markers of ER-stress"},
      {"measurement": "miRNA biogenesis", "setting": "[1]", "result": "affected miRNA biogenesis"},
      {"measurement": "ATF4 mRNA levels", "setting": "[2]; eIF2a S51A MEFs, 5 nM, 72 hrs", "result": "failed to upregulate ATF4 mRNA levels"},
      {"measurement": "Dicer inhibition (pre-miRNA and mature miRNA levels)", "setting": "[2]; eIF2a S51A MEFs, 5 nM, 72 hrs", "result": "partial recovery from Thapsigargin-induced Dicer inhibition"},
      {"measurement": "mature miRNA species", "setting": "[2]; wild-type MEFs, 5 nM, 72 hrs", "result": "relative depletion of the corresponding mature miRNA species"},
      {"measurement": "pre-miRNAs", "setting": "[2]; wild-type MEFs, 5 nM, 72 hrs", "result": "accumulation of pre-miRNAs"},
      {"measurement": "RNA markers of ER-stress: ASNS, ATF4, CHOP and GRP78", "setting": "NSC-34 cells; 6.25 nM, 24 hrs", "result": "up-regulation of RNA markers of ER-stress"},
      {"measurement": "mature miRNAs levels", "setting": "NSC-34 cells; 6.25 nM, 24 hrs", "result": "down-regulate mature miRNAs levels"},
      {"measurement": "miRNA precursors levels", "setting": "NSC-34 cells; 6.25 nM, 24 hrs", "result": "up-regulate miRNA precursors levels"}
    ]},
    {"smiles": "C=CCNC1=C2C[C@@H](C)C[C@H](OC)[C@H](O)[C@@H](C)/C=C(\\C)[C@H](OC(N)=O)[C@@H](OC)/C=C\\C=C(/C)C(=O)NC(=CC1=O)C2=O", "note": "[17-AAG]", "values": [
      {"measurement": "Thapsigargin-induced inhibition of miRNA biogenesis (ratio of pre-miRNA to mature miRNA)", "setting": "[2]; HSP90 inhibitor 1 μM, 5 hrs pretreatment, then 36 hrs with Thapsigargin 5 nM", "result": "aggravated Thapsigargin-induced inhibition of miRNA biogenesis"}
    ]},
    {"smiles": "COc1ccc(C[C@H](N)C(=O)N[C@H]2[C@@H](O)[C@H](n3cnc4c(N(C)C)ncnc43)O[C@@H]2CO)cc1", "note": "[Puromycin]", "values": [
      {"measurement": "efficacy of pre-miRNA biogenesis", "setting": "[2]; 1 μg/ml, 24 hrs", "result": "decreased the efficacy of pre-miRNA biogenesis"}
    ]},
    {"smiles": "C[n+]1ccc(-c2cc[n+](C)cc2)cc1", "note": "[Paraquat]", "values": [
      {"measurement": "mature miRNAs", "setting": "NSC-34 cells; PQ, 12 hrs, 1 mM", "result": "down-regulation of mature miRNAs"},
      {"measurement": "pre-miRNA levels", "setting": "NSC-34 cells; PQ, 12 hrs, 1 mM", "result": "up-regulation of pre-miRNA levels"}
    ]}
  ]
}
